System: 233499-124-R-J3-PDC complex spheroid viability, % test/control
Test: Anticancer human tumor 233499-124-R-J3-PDC patient-derived colon adenocarcinoma cell line growth inhibition
Conditions: for IC50: curve of first compound; for viability, T/C: stronger effect = lower value; active = viability on the fitted dose curve at most 10% of control; inactive = the rest
From the text: Multicellular complex tumor spheroid response to LSD1 Inhibitor Iadademstat in combination with a variety of drugs and investigational agents in selected tumor cell lines
The current study was undertaken to assess response to LSD1 inhibitors in combination with standard-of-care drugs and investigational agents in solid tumor complex spheroid models as well as in the K-562 leukemia. Complex spheroids include a stromal component modeled by human endothelial cells (HUVEC) and fibroblasts modeled by human mesenchymal stem cells (MSCs). The concentration ranges selected for each drug and investigational agent were based upon clinically achievable concentrations if the clinical Cmax of the agent was known.
Compounds. The drugs and investigational agents used in this study are listed on Table 1. All of the agents used, including staurosporine (NSC755774) and gemcitabine (NSC613327), were obtained from the Developmental Therapeutics Program, NCI. FDA-approved anticancer drugs are available from the NCI at http://dtp.nci.nih.gov/branches/dscb/oncology_drugset_explanation.html. Drugs and investigational agents were >95% pure by proton nuclear magnetic resonance (NMR) and liquid chromatography/mass spectrometry (LC/MS). Stock solutions were prepared at 400x in DMSO, stored at -70 degrees C, and diluted in fresh medium prior to their use. The final concentration of DMSO in cell culture wells never exceeded 0.25% (v/v). The FDA-approved anticancer drug set is available from the Developmental Therapeutics Program at https://dtp.cancer.gov/organization/dscb/obtaining/available_plates.htm. All drugs and investigational agents were tested over a range starting from a high concentration at or near the clinical Cmax and decreasing in half-log increments. If the clinical Cmax for an agent had not been determined, the highest concentration tested was 10 microM.
Cell Lines. The patient-derived cancer cell (PDC) lines: 292921-168-R-J2-PDC, K24384-001-R-PDC, and 521955-158-R2-J5-PDC pancreatic carcinomas, 556581-035-R-J1 ovarian carcinoma, 324938-238-R-J1-PDC, 855422-203-R-J1-PDC and 883617-216-R-J1-PDC urothelial bladder carcinomas, 743489-274-T-PDC renal cell carcinoma, 138582-R-J1 Merkel cell tumor, K60290-347-R-J1 and K57222-313-R-J1-PDC glioblastomas, 653999-131-R-J2-PDC, LG0703-F948-PDC, and 349418-098-R-PDC non-small cell lung carcinomas, 885512-296-R-J2-PDC, 171881-019-R-J1-PDC breast carcinomas and 186277-243-T-J2-PDC and 233499-124-R-J2-PDC colon carcinomas were obtained from the NCI Patient-Derived Models Repository (PDMR, https://pdmr.cancer.gov). The established cell lines NCI/ADR-RES (RRID:CVCL_14520 and OVCAR-5 (RRID:CVCL_1628) ovarian carcinomas, 786-O (RRID:CVCL_1051) and A498 (RRID:CVCL_A498) renal cell carcinoma, NCI-H211 (ATCC, cat. CRL-5824; RRID:CVCL_1529), NCI-H196 (ATCC, cat. CRL-5823, RRID:CVCL_1509), SW 1271 (ATCC, cat. CRL-2177, RRID:CVCL_1716) and NCI-H1876 (ATCC, cat. CRL-5902, RRID:CVCL_1503) small cell lung carcinomas, MDA-MB-231 (RRID:CVCL_0062) and MDA-MB-468 (RRID:CVCL_0419)breast carcinomas (10-12). Pooled donor human umbilical vein endothelial cells (HUVEC, Lonza, cat. CC-2519) and human mesenchymal stem cells (hMSC, Lonza, cat. PT-2501) were purchased from Lonza (Walkersville, MD).
Cell Culture. All cells were maintained in an incubator at 37 degrees C and 5% CO2 with 95% humidity. The PDC lines were cultured according to standard operating procedures established by the NCI PDMR (https://pdmr.cancer.gov). Briefly all PDCs were thawed and cultured in Matrigel-coated flasks prepared with a working solution of 1X Ham's F-12 nutrient mix, without supplementation (Invitrogen, Waltham, MA, cat. 11765054), 100 U/mL penicillin-streptomycin (Invitrogen, cat. 15140122), and 2.5% Matrigel (Corning Inc., Corning, NY, cat. 354248) for the first three passages. […]

[1] = second compound 0.1 µM, first compound 0.0316 µM
[2] = second compound 0.1 µM, first compound 0.1 µM
[3] = second compound 0.1 µM, first compound 0.316 µM
[4] = second compound 0.1 µM, first compound 1 µM
[5] = second compound 0.316 µM, first compound 0.0316 µM
[6] = second compound 0.316 µM, first compound 0.1 µM
[7] = second compound 0.316 µM, first compound 0.316 µM
[8] = second compound 0.316 µM, first compound 1 µM
[9] = second compound 1 µM, first compound 0.0316 µM
[10] = second compound 1 µM, first compound 0.1 µM
[11] = second compound 1 µM, first compound 0.316 µM
[12] = second compound 1 µM, first compound 1 µM
[13] = second compound 3.16 µM, first compound 0.0316 µM
[14] = second compound 3.16 µM, first compound 0.1 µM
[15] = second compound 3.16 µM, first compound 0.316 µM
[16] = second compound 3.16 µM, first compound 1 µM
[17] = second compound 10 µM, first compound 0.0316 µM
[18] = second compound 10 µM, first compound 0.1 µM
[19] = second compound 10 µM, first compound 0.316 µM
[20] = second compound 10 µM, first compound 1 µM
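Also: spheroids exposed to agents for one week before readout.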

CC(C)c1c(-c2ccccc2)nc2c(C#N)c[nH]n2c1=O + NC1CC1c1ccc(-c2cccc(O)c2)cc1
inactive: viability, T/C [1] 108% | viability, T/C [2] 117% | viability, T/C [3] 110% | viability, T/C [4] 100% | viability, T/C (second compound 0.1 µM, first compound 3.16 µM) 108% | viability, T/C (second compound 0.1 µM, first compound 10 µM) 104% | viability, T/C [5] 100% | viability, T/C [6] 110% | viability, T/C [7] 109% | viability, T/C [8] 118% | viability, T/C (second compound 0.316 µM, first compound 3.16 µM) 117% | viability, T/C (second compound 0.316 µM, first compound 10 µM) 110% | viability, T/C [9] 86.8% | viability, T/C [10] 93.6% | viability, T/C [11] 95.1% | viability, T/C [12] 92.8% | viability, T/C (second compound 1 µM, first compound 3.16 µM) 105% | viability, T/C (second compound 1 µM, first compound 10 µM) 116% | viability, T/C [13] 87.6% | viability, T/C [14] 93.5% | viability, T/C [15] 97.3% | viability, T/C [16] 98.9% | viability, T/C (second compound 3.16 µM, first compound 3.16 µM) 114% | viability, T/C (second compound 3.16 µM, first compound 10 µM) 109% | viability, T/C [17] 76.1% | viability, T/C [18] 78% | viability, T/C [19] 93.3% | viability, T/C [20] 101% | viability, T/C (second compound 10 µM, first compound 3.16 µM) 109% | viability, T/C (second compound 10 µM, first compound 10 µM) 114%
> 10 µM: IC50 (second compound 0.1 µM) | IC50 (second compound 0.316 µM) | IC50 (second compound 1 µM) | IC50 (second compound 3.16 µM) | IC50 (second compound 10 µM)

Nc1ncn(C2CC(O)C(CO)O2)c(=O)n1 (stereo not given) + NC1CCC(NC2CC2c2ccccc2)CC1
> 1 µM: IC50 (second compound 0.1 µM) | IC50 (second compound 0.316 µM) | IC50 (second compound 1 µM) | IC50 (second compound 3.16 µM) | IC50 (second compound 10 µM)
inactive: viability, T/C (second compound 0.1 µM, first compound 0.00316 µM) 77.1% | viability, T/C (second compound 0.1 µM, first compound 0.01 µM) 83.9% | viability, T/C [1] 83.8% | viability, T/C [2] 69% | viability, T/C [3] 110% | viability, T/C [4] 111% | viability, T/C (second compound 0.316 µM, first compound 0.00316 µM) 92.6% | viability, T/C (second compound 0.316 µM, first compound 0.01 µM) 96.8% | viability, T/C [5] 87.2% | viability, T/C [6] 86.8% | viability, T/C [7] 98.8% | viability, T/C [8] 77.6% | viability, T/C (second compound 1 µM, first compound 0.00316 µM) 89.3% | viability, T/C (second compound 1 µM, first compound 0.01 µM) 75.2% | viability, T/C [9] 74.8% | viability, T/C [10] 72.5% | viability, T/C [11] 85.1% | viability, T/C [12] 94.8% | viability, T/C (second compound 3.16 µM, first compound 0.00316 µM) 82.9% | viability, T/C (second compound 3.16 µM, first compound 0.01 µM) 72.2% | viability, T/C [13] 73.6% | viability, T/C [14] 82.6% | viability, T/C [15] 55.8% | viability, T/C [16] 101% | viability, T/C (second compound 10 µM, first compound 0.00316 µM) 74.2% | viability, T/C (second compound 10 µM, first compound 0.01 µM) 71.2% | viability, T/C [17] 68.7% | viability, T/C [18] 65.8% | viability, T/C [19] 73.1% | viability, T/C [20] 82.1%

— PubChem BioAssay AID1918930 (Molecular Pharmacology Branch, DTP, NCI, 2023)
